The source of these data is US20230374015A1, “INHIBITORS OF FIBROBLAST GROWTH FACTOR RECEPTOR KINASES” (Kinnate Biopharma Inc., priority 2020, published 2023).

Sequence of FGFR2 (P21802 22-821): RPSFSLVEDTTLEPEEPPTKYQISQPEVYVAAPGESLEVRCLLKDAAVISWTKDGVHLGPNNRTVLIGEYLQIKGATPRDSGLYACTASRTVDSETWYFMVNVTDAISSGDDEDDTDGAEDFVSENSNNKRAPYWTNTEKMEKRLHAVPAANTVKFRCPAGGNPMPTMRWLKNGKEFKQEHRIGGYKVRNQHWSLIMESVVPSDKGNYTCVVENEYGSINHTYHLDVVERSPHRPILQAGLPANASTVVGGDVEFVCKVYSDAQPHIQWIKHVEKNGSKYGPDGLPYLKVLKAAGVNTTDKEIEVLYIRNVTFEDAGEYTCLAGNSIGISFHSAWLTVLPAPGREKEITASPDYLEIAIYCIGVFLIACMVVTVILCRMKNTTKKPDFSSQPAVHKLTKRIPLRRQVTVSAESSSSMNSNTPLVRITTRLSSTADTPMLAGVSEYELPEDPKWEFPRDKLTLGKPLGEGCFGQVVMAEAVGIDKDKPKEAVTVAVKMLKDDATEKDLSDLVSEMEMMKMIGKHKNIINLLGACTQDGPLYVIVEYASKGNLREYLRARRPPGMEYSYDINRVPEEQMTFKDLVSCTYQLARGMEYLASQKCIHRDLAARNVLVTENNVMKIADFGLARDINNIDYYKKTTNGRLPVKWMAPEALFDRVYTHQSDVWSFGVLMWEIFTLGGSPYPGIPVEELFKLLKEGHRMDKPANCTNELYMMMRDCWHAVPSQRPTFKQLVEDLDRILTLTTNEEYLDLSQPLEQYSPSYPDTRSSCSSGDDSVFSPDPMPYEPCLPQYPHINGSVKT

The first experiment addresses FGFR2 (Homo sapiens, UniProt P21802). Description: FGFR2 Kinase Protocol - Condition 2 (Reaction Biology HotSpot radiometric kinase assay, no preincubation). It is filed as biochemical. Particulars: poly[Glu:Tyr] (4:1) 0.2 mg/ml, ATP 100 microM, 2 hr room temperature. How it is done: Example 2: FGFR2 Kinase Protocol—Condition 2
The Reaction Biology HotSpot assay platform (http://www.reactionbiology.com) was used to measure kinase/inhibitor interactions as described previously (Anastassiadis et al., 2011). In brief, for each reaction, kinase and substrate were mixed in a buffer containing 20 mM HEPES (pH 7.5), 10 mM MgCl2, 1 mM EGTA, 0.02% Brij35, 0.02 mg/mL BSA, 0.1 mM Na3VO4, 2 mM DTT, and 1% DMSO. All compounds were in powder form and freshly solubilized in DMSO for assays. Compounds were then added to each reaction mixture via acoustic dispense using an ECHO 550 nanoliter dispenser. For Human FGFR2 wildtype testing, a peptide substrate, poly[Glu:Tyr] (4:1) was used to promote the reaction at a concentration of 0.2 mg/ml. For Human FGFR2 (V564F) testing, a peptide substrate, poly[Glu:Tyr] (4:1) was used to promote the reaction at a concentration of 0.2 mg/ml. ATP concentration for all assays was maintained at 100 micromolar. Compounds were tested in 10-dose IC50 mode with a 3-fold serial dilution. Compounds were added to plates and ATP was added directly to the wells. ATP (Sigma-Aldrich, St. Louis, MO 63178) and [g33P] ATP (specific activity 10 microCi/microliter) purchased at PerkinElmer (Boston, MA, 02118 Cat #BLU 003H250UC) were added at a final total concentration of 100 microM to each well with no preincubation. Reactions were carried out at room temperature for 2 hr and spotted onto P81 ion exchange cellulose chromatography paper (Reaction Biology). Filter paper was washed in 0.75% phosphoric acid to remove unincorporated ATP. The percent remaining kinase activity relative to a vehicle-containing (DMSO) kinase reaction was calculated for each kinase/inhibitor pair. IC50 values were calculated using Dotmatics Knowledge Solutions Studies curve fitting (Dotmatics, Bishops Stortford, UK, CM23).
With `C=CC(=O)N1C[C@@H](n2cc(C#Cc3cc4nc(C)n(C(F)F)c4cc3Cl)c3c(N)ncnc32)C[C@@H]1COC` [Example 131, 1-[(2R,4S)-4-(4-Amino-5-{2-[6-chloro-1-(difluoromethyl)-2-methyl-1,3-benzodiazol-5-yl]ethynyl}pyrrolo[2,3-d]pyrimidin-7-yl)-2-(methoxymethyl)pyrrolidin-1-yl]prop-2-en-1-one], the IC50 (commonly the concentration needed to halve the response being measured) is not above 100 nM.

As for `C=CC(=O)N1C[C@@H](n2nc(C#Cc3cc4ncn(C)c4c(F)c3F)c3c(N)ncnc32)C[C@@H]1CC#N` [Example 158, 2-[(2R,4S)-4-{4-Amino-3-[2-(6,7-difluoro-1-methyl-1,3-benzodiazol-5-yl)ethynyl]pyrazolo[3,4-d]pyrimidin-1-yl}-1-(prop-2-enoyl)pyrrolidin-2-yl]acetonitrile], the IC50 was not above 100 nM. Still for that read-out and setting: with `C=CC(=O)N1C[C@@H](n2nc(C#Cc3ccc4nn(CC)cc4c3)c3c(N)nccc32)C[C@@H]1COC` [Example 38, 1-[(2R,4S)-4-[4-amino-3-[2-(2-ethylindazol-5-yl)ethynyl]pyrazolo[4,3-c]pyridin-1-yl]-2-(methoxymethyl)pyrrolidin-1-yl]prop-2-en-1-one] the figure was 1000 to 10000 nM; with `C=CC(=O)N1C[C@@H](n2nc(C#Cc3ccc4c(c3)nc(C(F)(F)F)n4C)c3c(N)ncnc32)C[C@@H]1COC` [Example 46, 1-((2R,4S)-4-(4-amino-3-((1-methyl-2-(trifluoromethyl)-1H-benzo[d]imidazol-5-yl)ethynyl)-1H-pyrazolo[3,4-d]pyrimidin-1-yl)-2-(methoxymethyl)pyrrolidin-1-yl)prop-2-en-1-one], not above 100 nM; with `C=CC(=O)N1C[C@@H](n2nc(C#Cc3cc4ncn(CC)c4c(F)c3F)c3c(N)nccc32)C[C@@H]1CC#N` [Example 160, 2-[(2R,4S)-4-{4-Amino-3-[2-(1-ethyl-6,7-difluoro-1,3-benzodiazol-5-yl)ethynyl]pyrazolo[4,3-c]pyridin-1-yl}-1-(prop-2-enoyl)pyrrolidin-2-yl]acetonitrile], not above 100 nM. Same read-out and setting: with `C=CC(=O)N1C[C@@H](n2nc(C#Cc3c(F)cc4c(ncn4CC)c3F)c3c(N)ncnc32)C[C@@H]1COC(F)(F)F` [Example 70, 1-((2R,4S)-4-(4-Amino-3-((1-ethyl-4,6-difluoro-1H-benzo[d]imidazol-5-yl)ethynyl)-1H-pyrazolo[3,4-d]pyrimidin-1-yl)-2-((trifluoromethoxy)methyl)pyrrolidin-1-yl)prop-2-en-1-one] the figure was not above 100 nM. As for `C=CC(=O)N1C[C@@H](n2nc(C#Cc3ccn4ncnc4c3)c3c(N)ncnc32)C[C@@H]1COC` [Example 114, 1-[(2R,4S)-4-[4-Amino-3-(2-[[1,2,4]triazolo[1,5-a]pyridin-7-yl]ethynyl)pyrazolo[3,4-d]pyrimidin-1-yl]-2-(methoxymethyl)pyrrolidin-1-yl]prop-2-en-1-one], the IC50 lay within 100 to 1000 nM.

`C=CC(=O)N1C[C@@H](n2nc(C#Cc3cc4ncn(C)c4cc3Cl)c3c(N)nccc32)C[C@@H]1COC` [Example 98, 1-[(2R,4S)-4-[4-Amino-3-[2-(6-chloro-1-methyl-1,3-benzodiazol-5-yl)ethynyl]pyrazolo[4,3-c]pyridin-1-yl]-2-(methoxymethyl)pyrrolidin-1-yl]prop-2-en-1-one] had an IC50 not above 100 nM. Regarding `C=CC(=O)N1C[C@@H](n2nc(C#Cc3cc4ncn(C)c4cc3F)c3c(N)ncnc32)C[C@@H]1COC` [Example 62, 1-[(2R,4S)-4-[4-Amino-3-[2-(6-fluoro-1-methyl-1,3-benzodiazol-5-yl)ethynyl]pyrazolo[3,4-d]pyrimidin-1-yl]-2-(methoxymethyl)pyrrolidin-1-yl]prop-2-en-1-one], the IC50 was not above 100 nM.

In the case of `C=CC(=O)N1C[C@@H](n2cc(C#Cc3cc4ncn(C)c4cc3F)c3c(N)ncnc32)C[C@@H]1CF` [Example 186, 1-((2R,4S)-4-(4-Amino-5-((6-fluoro-1-methyl-1H-benzo[d]imidazol-5-yl)ethynyl)-7H-pyrrolo[2,3-d]pyrimidin-7-yl)-2-(fluoromethyl)pyrrolidin-1-yl)prop-2-en-1-one], the IC50 was not above 100 nM.

Take `C=CC(=O)N1C[C@@H](n2nc(C#Cc3c(F)cc4c(ncn4C(F)F)c3F)c3c(N)nccc32)C[C@@H]1COC` [Example 65, 1-[(2R,4S)-4-(4-Amino-3-[2-[1-(difluoromethyl)-4,6-difluoro-1,3-benzodiazol-5-yl]ethynyl]pyrazolo[4,3-c]pyridin-1-yl)-2-(methoxymethyl)pyrrolidin-1-yl]prop-2-en-1-one]: the IC50 was not above 100 nM. For `C=CC(=O)N1C[C@@H](n2nc(C#Cc3cc4ncn(CC)c4c(F)c3F)c3c(N)ncnc32)C[C@@H]1COC` [Example 123, 1-[(2R,4S)-4-[4-Amino-3-[2-(1-ethyl-6,7-difluoro-1,3-benzodiazol-5-yl)ethynyl]pyrazolo[3,4-d]pyrimidin-1-yl]-2-(methoxymethyl)pyrrolidin-1-yl]prop-2-en-1-one], the IC50 is not above 100 nM. `C=CC(=O)N1C[C@@H](n2nc(C#Cc3c(F)cc4c(ncn4CC)c3F)c3c(N)nccc32)C[C@@H]1COC` [Example 86, 1-[(2R,4S)-4-[4-Amino-3-[2-(1-ethyl-4,6-difluoro-1,3-benzodiazol-5-yl)ethynyl]pyrazolo[4,3-c]pyridin-1-yl]-2-(methoxymethyl)pyrrolidin-1-yl]prop-2-en-1-one] came in with an IC50 not above 100 nM. On the same count and under the same terms, next, `C=CC(=O)N1C[C@@H](n2nc(C#Cc3cc4ncn(C)c4cc3F)c3c(N)ncnc32)C[C@@H]1C` [Example 151, 1-((2S,4S)-4-(4-amino-3-((1-methyl-6-fluoro-1H-benzo[d]imidazol-5-yl)ethynyl)-1H-pyrazolo[3,4-d]pyrimidin-1-yl)-2-methylpyrrolidin-1-yl)prop-2-en-1-one]: not above 100 nM.

In turn, `C=CC(=O)N1C[C@@H](n2nc(C#Cc3c(F)cc4c(ncn4C)c3F)c3c(N)ncnc32)C[C@@H]1COC(F)(F)F` [Example 54, 1-[(2R,4S)-4-[4-Amino-3-[2-(4,6-difluoro-1-methyl-1,3-benzodiazol-5-yl)ethynyl]pyrazolo[3,4-d]pyrimidin-1-yl]-2-[(trifluoromethoxy)methyl]pyrrolidin-1-yl]prop-2-en-1-one] showed an IC50 not above 100 nM. `C=CC(=O)N1C[C@@H](n2cc(C#Cc3c(F)cc4c(ncn4C)c3F)c3c(N)ncnc32)C[C@@H]1COC` [Example 61, 1-[(2R,4S)-4-[4-Amino-5-[2-(4,6-difluoro-1-methyl-1,3-benzodiazol-5-yl)ethynyl]pyrrolo[2,3-d]pyrimidin-7-yl]-2-(methoxymethyl)pyrrolidin-1-yl]prop-2-en-1-one] displayed an IC50 not above 100 nM. Same read-out and setting: next, `C=CC(=O)N1C[C@@H](n2nc(C#Cc3ccc4nn(CC)cc4c3)c3c(N)ncnc32)C[C@@H]1COC` [Example 42, 1-[(2R,4S)-4-[4-amino-3-[2-(2-ethylindazol-5-yl)ethynyl]pyrazolo[3,4-d]pyrimidin-1-yl]-2-(methoxymethyl)pyrrolidin-1-yl]prop-2-en-1-one]: 100 to 1000 nM; `C=CC(=O)N1CC[C@H](n2nc(C#Cc3c(F)cc4c(ncn4C4CC4)c3F)c3c(N)ncnc32)C1` [Example 195, 1-[(3S)-3-{4-Amino-3-[2-(1-cyclopropyl-4,6-difluoro-1,3-benzodiazol-5-yl)ethynyl]pyrazolo[3,4-d]pyrimidin-1-yl}pyrrolidin-1-yl]prop-2-en-1-one]: not above 100 nM; `C=CC(=O)N1CC[C@H](n2nc(C#Cc3cc4ncn(CC)c4c(F)c3Cl)c3c(N)ncnc32)C1` [Example 144, 1-[(3S)-3-{4-Amino-3-[2-(6-chloro-1-ethyl-7-fluoro-1,3-benzodiazol-5-yl)ethynyl]pyrazolo[3,4-d]pyrimidin-1-yl}pyrrolidin-1-yl]prop-2-en-1-one]: not above 100 nM. Take `C=CC(=O)N1C[C@@H](n2nc(C#Cc3cc4ncn(C)c4cc3Cl)c3c(N)nccc32)C[C@@H]1C(F)F` [Example 172, 1-((2R,4S)-4-(4-amino-3-((6-chloro-1-methyl-1H-benzo[d]imidazol-5-yl)ethynyl)-1H-pyrazolo[4,3-c]pyridin-1-yl)-2-(difluoromethyl)pyrrolidin-1-yl)prop-2-en-1-one]: the IC50 is not above 100 nM. The same measure, in the same setting: with `C=CC(=O)N1C[C@@H](n2cc(C#Cc3cc4ncn(C5CC5)c4cc3Cl)c3c(N)ncnc32)C[C@@H]1COC` [Example 127, 1-[(2R,4S)-4-[4-Amino-5-[2-(6-chloro-1-cyclopropyl-1,3-benzodiazol-5-yl)ethynyl]pyrrolo[2,3-d]pyrimidin-7-yl]-2-(methoxymethyl)pyrrolidin-1-yl] prop-2-en-1-one] the figure was not above 100 nM.

Staying with this experiment, now noted: poly[Glu:Tyr] (4:1) 0.2 mg/ml, ATP 100 microM, 2 hr room temperature, given as numeric bound.
Turning to `C=CC(=O)N1CC[C@H](c2nc(C#Cc3cc4ncn(C5CC5)c4cc3F)c3c(N)ncnn23)C1` [Example 200, (S)-1-(3-(4-Amino-5-((1-cyclopropyl-6-fluoro-1H-benzo[d]imidazol-5-yl)ethynyl)imidazo[5,1-f][1,2,4]triazin-7-yl)pyrrolidin-1-yl)prop-2-en-1-one], the IC50 was more than 500 nM.
